The source of these data is patent US5034402A, “Methods and pharmaceutical compositions using pyrrolidine derivatives” (Hoffmann-La Roche Inc., priority 1981, dated 1991).

SMILES strings stand for the structures. Some results are limits rather than exact numbers.

The nature of data set [1]: acute toxicity, single oral administration to mice. Conditions: mouse, in vivo. The text has this:
Moreover, the Table contains data concerning the acute toxicity (LD50 in mg/kg in the case of single oral administration to mice).

Data set [2] concerns short-time memory. As to the kind of experiment: passive avoidance response in the Skinner box; reversal of scopolamine-induced blocking of short-time memory. The format is in vivo, rats. The text has this: The test apparatus is a "Skinner box" with an electrifiable grid floor (30×40 cm) and a grey plastic platform (15×15×0.8 cm) in the front right corner. Untrained male rats (100-120 g) are placed individually on the platform. As soon as they climb down on to the grid floor they receive an electric foot-shock (0.8 mA). The normal reaction of untrained rats is thereupon to jump back on to the platform. Since, however, the rats still attempt to climb down again, the foot-shock procedure must be repeated three to five times for each animal. After these three to five repetitions per animal, the rats have learned a so-called "passive avoidance response", that is, they no longer attempt to descend to the grid floor, since they know that they are punished when they do so.
Immediately thereafter three groups each comprising 30 animals are set up. The first group receives an injection (i.p.) of 0.3 mg/kg of scopolamine as well as distilled water (2 ml/kg, p.o.). The second group receives an injection (i.p.) of 0.3 mg/kg of scopolamine and an oral dosage of the test substance. The third group receives only distilled water (p.o).
Two (2) hours later each rat is placed once on the platform in the "Skinner box". […] The statistical significance of the difference between the results obtained in the first and in the second groups is determined by means of the Chi-Square Test. […]

The molecule `NC(=O)CN1CC[C@H](O)C1=O` [Compound B, (S)-(-)-2-(3-hydroxy-2-oxo-1-pyrrolidinyl)acetamide] registered an LD50 in data set [1] greater than 5000 mg/kg.

On to `CN1[C@@H]2C[C@@H](OC(=O)[C@H](CO)c3ccccc3)C[C@H]1[C@@H]1O[C@@H]12` [scopolamine, reference compound], for which, in data set [2] (scopolamine 0.3 mg/kg i.p. and distilled water p.o., during 3-4 hours), the “animals with retrograde effect on the short-time memory” value is given as 85-92%.

Take `C[C@@H]1CCC[C@H](C)N1CCNC(=O)CN1CCC(O)C1=O` (mixture of isomers) [Compound A, (R/S)-cis-N-[2-(2,6-dimethyl-1-piperidinyl)ethyl]-2-(3-hydroxy-2-oxo-1-pyrrolidinyl)acetamide]: the median lethal dose (LD50) in data set [1] is greater than 5000 mg/kg.

Take `CC(C)N(CCNC(=O)CN1CCC(O)C1=O)C(C)C` (racemic) [Compound E, (R/S)-N-[2-(diisopropylamino)ethyl]-2-(3-hydroxy-2-oxo-1-pyrrolidinyl)-acetamide]: the median lethal dose (LD50) in data set [1] is greater than 5000 mg/kg. Further, the Significant active dosage in data set [2] (oral dosage significantly active against scopolamine (0.3 mg/kg i.p.), assessed 2 hours later, Chi-Square Test, each listed dosage was active) is given as 3 mg/kg p.o.

In data set [1], `NC(=O)CN1CC[C@@H](O)C1=O` [Compound C, (R)-(+)-2-(3-hydroxy-2-oxo-1-pyrrolidinyl)acetamide] showed an LD50 greater than 5000 mg/kg.

Consider `NC(=O)CN1CCC(O)C1=O` (racemic) [Compound D, (R/S)-2-(3-hydroxy-2-oxo-1-pyrrolidinyl)acetamide], for which, in data set [1], the LD50 was greater than 5000 mg/kg.
